A short description of data set [1]: Cytotoxicity (Cell Counting Kit-8, 3 days). The format is cell-based, bovine. As to conditions: bovine, Madin–Darby bovine kidney (MDBK) cells, 37 °C, mean ± SD of triplicate. On the procedure: (§1) Additionally, Madin–Darby bovine kidney cells were cultivated (density, 1 × 10^4 cells/mL) in a 96-well cell culture plate (Thermo Fisher Scientific) with the analogs, at seven different concentrations for 3 days at 37 °C. Next, 10 µl of the Cell Counting Kit-8 solution (Dojindo, Kumamoto, Japan) was added into each well […] 4 h of incubation. Absorbance was measured at 450 nm using a GloMax®-Multi+Detection System plate reader.
(§2) The half maximum inhibitory concentration (IC50) of each analog in trypanosomes and the Madin–Darby bovine kidney cells was calculated using the GraphPad Prism version 8 software (GraphPad, Inc., San Diego, CA, USA).
(Tetrazolium dyes change colour on reduction, which living cells bring about.)

Another data set deals with T. b. brucei GUTat3.1. Briefly: In vitro trypanocidal activity (CellTiter-Glo, 3 days). The format is cell-based. As to conditions: Trypanosoma brucei, 72 h, bloodstream forms, 37 °C, mean ± SD of triplicate, read-out: Trypanocidal Activity IC50 ± SD, Tbb GUTat3.1. The method, then: (§3) The bloodstream forms of T. b. brucei GUTat3.1, T. b. rhodesiense IL1501, T. b. rhodesiense Chirundu, T. b. gambiense IL1922, and T. evansi Tansui strains were propagated in culture at 37 °C, whereas the T. congolense IL3000 strain was propagated at 33 °C in Hirumi’s modified Iscove’s medium-9, supplemented with 20% heat-inactivated fetal bovine serum. The bloodstream form cultures were maintained by replacing the entire culture supernatant with fresh medium, every other day.
(§4) The trypanocidal activity and cytotoxicity of nitrofurantoin analogs were evaluated according to previous reports, with some modifications. In brief, bloodstream forms adjusted at 2.5 × 10^3 cells/mL (T. b. brucei GUTat3.1, T. b. gambiense IL1922, and T. b. rhodesiense IL1501), 1 × 10^4 cells/mL (T. evansi Tansui and T. b. rhodesiense Chirundu), and 1 × 10^5 cells/mL (T. congolense IL3000), were cultivated in Nunc® MicroWell 96-well optical bottom plates (Thermo Fisher Scientific, Waltham, MA, USA) and exposed to various analogs at seven different concentrations for 3 days, in an incubator at 37 °C (33 °C for T. congolense IL3000). […] Twenty-five microliters of the Cell-TiterGlo® (Promega, Madison, WI, USA) reagent was added into each well, and bioluminescence was measured using a GloMax®-Multi+Detection System plate reader (Promega).
as §2

In the next data set the test system is T. evansi Tansui. The data set is described as above. As to conditions: 72 h, bloodstream forms, 37 °C, mean ± SD of triplicate, read-out: Trypanocidal Activity IC50 ± SD, Tev Tansui. The format is cell-based. The method, then: as §3, §4, §2
Another data set deals with T. b. gambiense IL1922. The data set is described as above. Format: cell-based. The settings on record: Trypanosoma brucei, 72 h, bloodstream forms, 37 °C, mean ± SD of triplicate, read-out: Trypanocidal Activity IC50 ± SD, Tbg IL1922. On the procedure:
as §3, §4, §2

Data set [2] has as its system T. congolense IL3000. The data set is described as above. The format is cell-based. As to conditions: Trypanosoma congolense, 72 h, bloodstream forms, 33 °C, mean ± SD of triplicate, read-out: Trypanocidal Activity IC50 ± SD, Tc IL3000. On the procedure:
as §3, §4, §2

The test system of another data set is T. b. rhodesiense IL1501. Described as above. The format is cell-based. The settings on record: Trypanosoma brucei, 72 h, bloodstream forms, 37 °C, mean ± SD of triplicate, read-out: Trypanocidal Activity IC50 ± SD, Tbr IL1501. On the procedure: as §3, §4, §2
Data set [3] concerns T. b. rhodesiense Chirundu. The description is as above. Format: cell-based. The settings on record: Trypanosoma brucei, 72 h, bloodstream forms, 37 °C, mean ± SD of triplicate, read-out: Trypanocidal Activity IC50 ± SD, Tbr Chirundu. On the procedure: as §3, §4, §2
Another data set concerns mycobacterial. Details: method as in PMID 32044516. The settings on record: more potent than nitrofurantoin; cited from earlier work.
The test system of data set [4] is T. congolense IL3000. Briefly: In vivo treatment efficacy in mice infected with T. congolense. On the set-up: species or system BALB/c mice. As to conditions: for time by which all mice died because of high parasitemia: intraperitoneal injection at 0.1 mg/kg; for time by which all mice died because of high parasitemia / time by which all mice succumbed to high parasite levels: 7 consecutive days from 2 dpi. On the procedure: Healthy female 8-week-old BALB/c mice (CLEA Japan, Inc., Tokyo, Japan) were used in this study. All animals had ad libitum access to normal chow and water.
The virulent T. congolense IL3000 strain was propagated in a mouse and used for infection. The parasites were passaged once in a mouse before the experiment. The experimental mice were intraperitoneally infected with 100 μL of T. congolense in phosphate-buffered saline, containing 10% glucose at 1 × 10^3 cells/mouse. First, the mice were randomly divided into six groups of three mice, each as follows. Group I (no treatment), mice were not infected and were only treated with solvent (10% dimethyl sulfoxide–phosphate–buffered saline). Group II received 3.5 mg/kg of diminazene aceturate treatment. Groups III (9), IV (11), V (12), and VI were treated with nitrofurantoin and the mice were infected and intraperitoneally treated with 0.1 mg/kg of the compound.
In the second experiment, the mice were randomly divided into six groups of three mice, each as follows—group I received no treatment; group II received 3.5 mg/kg of diminazene aceturate treatment; and groups III (9), IV (11), V (12), and VI received nitrofurantoin—the mice were infected and orally treated with 10 mg/kg of the compound.
Treatment was initiated at 2 days post-infection (dpi) and continued for seven consecutive days. The treatments were freshly prepared each day. Parasitemia was observed using a cell counting chamber until 14 dpi.

Data set [5] concerns Madin–Darby bovine kidney cells. Briefly: Cytotoxicity (Cell Counting Kit-8, 3 days). The format is cell-based. As to conditions: MDBK cells, 37 °C, mean ± SD of triplicate. The method, then: as §1, §2
Data set [6] has as its system six species/strains of animal and human trypanosomes. Put plainly: In vitro trypanocidal activity, summary over all strains. The settings on record: over the six trypanosome species/strains. The format is cell-based. On the procedure: as §3
The trypanocidal activity and cytotoxicity of nitrofurantoin analogs were evaluated according to previous reports, with some modifications. […] Twenty-five microliters of the Cell-TiterGlo® (Promega, Madison, WI, USA) reagent was added into each well, and bioluminescence was measured using a GloMax®-Multi+Detection System plate reader (Promega).
as §2

Where [7] appears, read: after both oral (10 mg/kg) and intraperitoneal (0.1 mg/kg) administration.
[8] abbreviates: oral, 10 mg/kg, T. congolense-infected mice.

Molecules are shown by their SMILES.

Regarding `CCCCCCCCN1C(=O)CN(/N=C/c2ccc([N+](=O)[O-])o2)C1=O` [Analog 8, (E)-1-([(5-Nitrofuran-2-yl)methylene]amino)-3-octylimidazolidine-2,4-dione], in data set [1], 84700 ± 8990 nM corresponded to half-maximal inhibition (IC50 at 3 days). The IC50 (usually the concentration that inhibits the measured activity by half) came to 1890 ± 690 nM in the data set with T. b. brucei GUTat3.1; 810 ± 82 nM with T. evansi Tansui; 1400 ± 730 nM in the data set with T. b. gambiense IL1922; 30 ± 5 nM with T. congolense IL3000 [2]; 1380 ± 820 nM in the data set on T. b. rhodesiense IL1501; 39 ± 8.4 nM in data set [3]. Besides, the “anti-mycobacterial potency relative to nitrofurantoin” value in the data set with mycobacterial is given as 30 fold.

In turn, `CCCCCCCCCN1C(=O)CN(/N=C/c2ccc([N+](=O)[O-])o2)C1=O` [Analog 9, (E)-1-([(5-Nitrofuran-2-yl)methylene]amino)-3-nonylimidazolidine-2,4-dione] displayed an IC50 at 3 days in [1] of 251000 ± 58300 nM. In addition, in the data set with T. congolense IL3000 [4] (setting [7]), the “treatment efficacy against T. congolense infection in vivo” value (“treatment efficacy” below) is given as “no treatment efficacy”. The “time by which all mice died because of high parasitemia” value (“time by which all mice died because” for short) with T. congolense IL3000 [4] (T. congolense-infected mice) is reported as not above 9 dpi. In addition, the “time by which all mice succumbed to high parasite levels” value (shortened to “time by which all mice succumbed”) in the data set on T. congolense IL3000 [4] (setting [8]) is recorded as not above 9 dpi. Moreover, the IC50 is 570 ± 220 nM with T. b. brucei GUTat3.1; 270 ± 25 nM with T. evansi Tansui; 440 ± 170 nM with T. b. gambiense IL1922; 10 ± 3.5 nM in the data set on T. congolense IL3000 [2]; 600 ± 540 nM in the data set with T. b. rhodesiense IL1501; 17 ± 6.7 nM in [3].

With `CCCCCCCCCCCN1C(=O)CN(/N=C/c2ccc([N+](=O)[O-])o2)C1=O` [Analog 11, (E)-1-([(5-Nitrofuran-2-yl)methylene]amino)-3-undecylimidazolidine-2,4-dione], the concentration for half-maximal inhibition (IC50) at 3 days in data set [1] was more than 246000 nM. For the same molecule, the IC50 was more than 255000 nM in [5]; less than 340 nM in data set [6]; 330 ± 120 nM with T. b. brucei GUTat3.1; 160 ± 14 nM with T. evansi Tansui; 330 ± 120 nM with T. b. gambiense IL1922; 11 ± 3.5 nM with T. congolense IL3000 [2]. The IC50 is 240 ± 130 nM with T. b. rhodesiense IL1501 and 21 ± 9.4 nM in data set [3]. Moreover, the “treatment efficacy” value with T. congolense IL3000 [4] (setting [7]) was “no treatment efficacy”. Further, in the data set on T. congolense IL3000 [4] (T. congolense-infected mice), the “time by which all mice died because” value is not above 9 dpi. Also, in the data set on T. congolense IL3000 [4] (setting [8]), the “time by which all mice succumbed” value was not above 9 dpi.

In turn, `CCCCCCCCCCCCN1C(=O)CN(/N=C/c2ccc([N+](=O)[O-])o2)C1=O` [Analog 12, (E)-3-Dodecyl-1-([(5-nitrofuran-2-yl)methylene]amino)imidazolidine-2,4-dione] showed an IC50 at 3 days in data set [1] of more than 246000 nM. The IC50 in data set [6] is less than 340 nM; in the data set on T. b. brucei GUTat3.1, 340 ± 120 nM; in the data set on T. evansi Tansui it was 200 ± 17 nM; in the data set on T. b. gambiense IL1922, 230 ± 130 nM; with T. congolense IL3000 [2], 12 ± 4.5 nM; in the data set with T. b. rhodesiense IL1501 it was 260 ± 110 nM. In data set [3], the IC50 is 31 ± 11 nM. Also, the “treatment efficacy” value in the data set on T. congolense IL3000 [4] (setting [7]) is recorded as “no treatment efficacy”. In addition, the “time by which all mice died because” value in the data set with T. congolense IL3000 [4] (T. congolense-infected mice) is not above 9 dpi. Further, in the data set on T. congolense IL3000 [4] (setting [8]), the “time by which all mice succumbed” value is not above 9 dpi.

In data set [1], `COc1ccc(CN2C(=O)CN(/N=C/c3ccc([N+](=O)[O-])o3)C2=O)cc1` [Analog 18, (E)-3-(p-Methoxybenzyl)-1-([(5-nitrofuran-2-yl)methylene]amino)imidazolidine-2,4-dione] registered an IC50 at 3 days of 80100 ± 36900 nM. Also, the IC50 was 9910 ± 92 nM in the data set with T. b. brucei GUTat3.1; 2400 ± 190 nM in the data set with T. evansi Tansui; 9780 ± 310 nM in the data set with T. b. gambiense IL1922; 140 ± 30 nM in the data set with T. congolense IL3000 [2]; 10100 ± 620 nM in the data set on T. b. rhodesiense IL1501; 330 ± 220 nM in data set [3].

Take `O=C1CN(/N=C/c2ccc([N+](=O)[O-])o2)C(=O)N1Cc1ccc(Br)cc1` [Analog 19, (E)-3-(p-Bromobenzyl)-1-([(5-nitrofuran-2-yl)methylene]amino)imidazolidine-2,4-dione]: 28700 ± 5690 nM corresponded to half-maximal inhibition in [1] (IC50 at 3 days). The IC50 was found to be 2130 ± 230 nM in the data set with T. b. brucei GUTat3.1; 1150 ± 110 nM in the data set on T. evansi Tansui; 2040 ± 91 nM in the data set with T. b. gambiense IL1922; 49 ± 33 nM in the data set on T. congolense IL3000 [2]; 2470 ± 690 nM in the data set on T. b. rhodesiense IL1501; 41 ± 25 nM in [3].

As to `O=C1CN(/N=C/c2ccc([N+](=O)[O-])o2)C(=O)N1` [Nitrofurantoin], the “time by which all mice died because” value in the data set on T. congolense IL3000 [4] (T. congolense-infected mice) is listed as not above 9 dpi. Further, in the data set on T. congolense IL3000 [4] (oral treatment, 10 mg/kg), the “treatment efficacy” value is recorded as “partial efficacy”. In the data set on T. congolense IL3000 [4] (oral, 10 mg/kg, three mice per group, observed until 14 dpi), the “mice surviving until end of the experiment period” value is “two of three”. Besides, the IC50 worked out at 1420 ± 150 nM in the data set on T. b. brucei GUTat3.1; 1960 ± 500 nM in the data set on T. evansi Tansui; 1620 ± 280 nM in the data set on T. b. gambiense IL1922; 360 ± 43 nM with T. congolense IL3000 [2]; 1420 ± 250 nM in the data set with T. b. rhodesiense IL1501.

As to `CC(=O)NCC(=O)O.CC(=O)NCC(=O)O.N=C(N)c1ccc(N=NNc2ccc(C(=N)N)cc2)cc1` [diminazene aceturate, reference compound], the parasitemia entry in the data set with T. congolense IL3000 [4] (group II, 3.5 mg/kg, T. congolense-infected mice) is reported as “not observed”.

The values are drawn from publication PMC8199755, “In Vitro and In Vivo Trypanocidal Efficacy of Synthesized Nitrofurantoin Analogs” (Molecules, 2021).
